Results published in patent US20140294849A1, “COMPOSITIONS AND USES” (GLAXOSMITHKLINE BIOLOGICALS SA, priority 2011, published 2014).

Legend:
[1] = system: CD11b+ peripheral blood monocytes; experiment: Ex vivo uptake assay of Aβ1-42; assay type: cell-based, C57BL/6 mice; conditions: Example 14; AS01B mouse full dose (5 ug per mouse) or CRX601 2 μg, i.m.
Protocol: Preparation of cells: Peripheral blood was drawn from C57BL/6 mice via cardiac puncture with lithium-heparin as anticoagulant, 24-hours after injection of the adjuvants used herein. Red blood cell lysis was performed twice on pooled blood with Ammonium Chloride-based Buffer (Sigma, Steinheim, Germany) and cells were counted with the EasyCount™ System (Immunicon). […]
FACS analysis: cells were harvested after incubation with fluorescent Aβ peptide with Trypsin/EDTA and cold PBS and washed three times. 500,000 cells were incubated in 96-well plate for 10 min. on ice in the presence of Rat anti-Mouse CD16/CD32 (clone 2.4G2—BD Fc Block™) and further stained for 30 min. with a combination of the following directly conjugated antibodies at their pre-determined optimal concentration: PE-Hamster anti-Mouse CD3 (clone 145-2C11), Rat anti-Mouse CD45R/B220 (clone RA3-6B2), Rat anti-Mouse Ly-6G (clone 1A8), Mouse anti-Mouse NK1.1 (clone PK136), APC-conjugated Rat anti-Mouse CD11b (clone M1/70), PE-Cy7-conjugated Hamster anti-Mouse CD11c (clone HL3), (all from BD PharMingen). […]
Samples were acquired on a flow cytometer (BD FACSCanto II) and data analyzed with the FACSDiva software (BD Biosciences). […]

[2] = system: Lineage-CD11b+ monocytes in peripheral blood; experiment: Monocyte analysis and counting after adjuvant injection in mice; assay type: in vivo, C57BL/6 mice; conditions: Example 12, single i.m. injection
Protocol: (§1) 24-Hours after injection of the TLR adjuvants, peripheral blood was drawn from C57BL/6 mice via cardiac puncture with lithium-heparin as anticoagulant. Red blood cell lysis was performed twice on pooled blood with Ammonium Chloride-based Buffer (Sigma, Steinheim, Germany) and cells were counted with the EasyCount™ System (Immunicon). […] Cells were finally washed three times and fixed for 15 min. with a 2% paraformaldehyde solution in PBS. Fluorescence minus one (FMO) controls were always included in the assays for fluorescent compensation setting. Samples were acquired on a flow cytometer (BD FACSCanto II) and data analyzed with the FACSDiva software (BD Biosciences). Monocytes were identified by their Side/Forward scatter properties and gated as CD3-/CD45R/B220-/Ly-6G-/NK1.1-(Lineage-)/CD11b+ cells. CD11b+ monocyte frequency was reported as a percentage of the total cells excluding debris.
as §1, with “24 hours” for “24-Hours”, “each immunomodulator,” for “the TLR adjuvants,”, “min” for “min.”, “monocytes” for “monocyte”
Cells were finally washed twice and fixed for 15 min. with a 2% paraformaldehyde solution in PBS. FMOs controls were always included in the assays. Samples were acquired on a flow cytometer (BD FACSCanto II) and data analyzed with the FACSDiva software (BD Biosciences). Monocytes were identified and counted by their Side/Forward scatter properties, excluding debris and gated as CD3-/CD45R/B220-/Ly-6G-/NK1.1-(Lineage-)/CD11 b+ cells.

With `CCCCCCCCCCC[C@H](CC(=O)N[C@H]1[C@H](OC[C@H](NC(=O)C[C@@H](CCCCCCCCCCC)OCCCCCCCCCC)C(=O)O)O[C@H](CO)[C@@H](OP(=O)(O)O)[C@@H]1OC(=O)C[C@@H](CCCCCCCCCCC)OCCCCCCCCCC)OCCCCCCCCCC` [CRX601] the “ex vivo uptake of Aβ42 by monocytes compared to PBS group” value [1] was “higher amount of Aβ42”, the “monocyte effect at 20 μg dose” value [2] was “down modulated” and the “dose of maximum monocyte response” value ([2]; 0.2 to 20 ug/mouse) was 10 µg. For the same compound, the “dose enough to trigger an increase of the monocyte count” value ([2]; 24 hrs, compared to PBS) was 1 µg.
